The subject of this experiment is L1210 leukemia ip in BDF1 mice, survival T/C. The experiment can be described thus: NCI In Vivo Anticancer Drug Screen. Data for tumor model L1210 Leukemia (intraperitoneal) in B6D2F1 (BDF1) mice. Conditions: endpoint: mean survival time, higher = longer survival. The method in brief:
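Tumor was transplanted into mice, which were then dosed with test compound or vehicle alone. Survival was recorded for each group, and the treated figure was expressed relative to the control figure.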

Where [1] appears, read: dose: 100.0 mg/kg/injection, schedule: Q01DX001 (ip), vehicle: saline.
[2] abbreviates: dose: 200.0 mg/kg/injection, schedule: Q01DX001 (ip), vehicle: saline.
Where [3] appears, read: dose: 400.0 mg/kg/injection, schedule: Q01DX001 (ip), vehicle: saline.
Where [4] appears, read: dose: 100.0 mg/kg/injection, schedule: Q04DX002 (ip), vehicle: Klucel (hydroxypropylcellulose) (HPC).
Where [5] appears, read: dose: 200.0 mg/kg/injection, schedule: Q04DX002 (ip), vehicle: Klucel (hydroxypropylcellulose) (HPC).
Setting [6] is: dose: 400.0 mg/kg/injection, schedule: Q04DX002 (ip), vehicle: Klucel (hydroxypropylcellulose) (HPC).
Where [7] appears, read: dose: 100.0 mg/kg/injection, schedule: Q04DX002 (ip), vehicle: saline.
Where [8] appears, read: dose: 100.0 mg/kg/injection, schedule: Q01DX009 (ip), vehicle: Klucel (hydroxypropylcellulose) (HPC).
The mark [9] stands for this setting: dose: 200.0 mg/kg/injection, schedule: Q01DX009 (ip), vehicle: Klucel (hydroxypropylcellulose) (HPC).
[10] abbreviates: dose: 400.0 mg/kg/injection, schedule: Q01DX009 (ip), vehicle: Klucel (hydroxypropylcellulose) (HPC).
Setting [11] is: dose: 100.0 mg/kg/injection, schedule: Q04DX003 (ip), vehicle: saline with Tween-80.
The mark [12] stands for this setting: dose: 200.0 mg/kg/injection, schedule: Q04DX003 (ip), vehicle: saline with Tween-80.
[13] abbreviates: dose: 400.0 mg/kg/injection, schedule: Q04DX003 (ip), vehicle: saline with Tween-80.
Where [14] appears, read: dose: 50.0 mg/kg/injection, schedule: Q01DX009 (ip), vehicle: saline with Tween-80.
Where [15] appears, read: dose: 100.0 mg/kg/injection, schedule: Q01DX009 (ip), vehicle: saline with Tween-80.
The mark [16] stands for this setting: dose: 200.0 mg/kg/injection, schedule: Q01DX009 (ip), vehicle: saline with Tween-80.

Values joined by “and” are separate entries in the source; they are usually repeats but may differ in a detail not shown here. Equal entries are not always repeated. Toxic doses and inconclusive results are not listed.

With `O=C(Nc1ccc(NC(=O)Nc2cccc(C3=NCCCN3)c2)cc1)Nc1ccc(C2=NCCCN2)cc1`, the T/C by setting is: (dose: 1.25 mg/kg/injection, schedule: Q01DX Z (ip), vehicle: carboxymethylcellulose (CMC)) 102 % of control; (dose: 2.5 mg/kg/injection, schedule: Q01DX Z (ip), vehicle: carboxymethylcellulose (CMC)) 109 % of control; (dose: 5.0 mg/kg/injection, schedule: Q01DX Z (ip), vehicle: carboxymethylcellulose (CMC)) 113 % of control; (dose: 8.5 mg/kg/injection, schedule: Q01DX Z (ip), vehicle: carboxymethylcellulose (CMC)) 170 % of control; (dose: 10.0 mg/kg/injection, schedule: Q01DX Z (ip), vehicle: carboxymethylcellulose (CMC)) 167 % of control; (dose: 15.0 mg/kg/injection, schedule: Q01DX Z (ip), vehicle: carboxymethylcellulose (CMC)) 157 % of control. For the same molecule, the T/C reads like this: (dose: 17.0 mg/kg/injection, schedule: Q01DX Z (ip), vehicle: carboxymethylcellulose (CMC)) 151 % of control; (dose: 50.0 mg/kg/injection, schedule: Q01DX Z (oral), vehicle: carboxymethylcellulose (CMC)) 102 % of control; (dose: 100.0 mg/kg/injection, schedule: Q01DX Z (oral), vehicle: carboxymethylcellulose (CMC)) 107 % of control; (dose: 200.0 mg/kg/injection, schedule: Q01DX Z (oral), vehicle: carboxymethylcellulose (CMC)) 104 % of control; (dose: 400.0 mg/kg/injection, schedule: Q01DX Z (oral), vehicle: carboxymethylcellulose (CMC)) 102 % of control.

Take `c1ccc2c(c1)C[N+](=C1CCCCC1)C2`: the T/C is 91 % of control (dose: 75.0 mg/kg/injection, schedule: Q01DX009 (ip), vehicle: saline); 93 % of control under setting [1]; 88 % of control (dose: 150.0 mg/kg/injection, schedule: Q01DX009 (ip), vehicle: saline); 97 % of control under setting [2]; 91 % of control (dose: 300.0 mg/kg/injection, schedule: Q01DX009 (ip), vehicle: saline); 98 % of control under setting [3].

Consider `CCCCCC(=O)C#Cc1ccccc1`, for which the T/C runs as follows: (dose: 6.25 mg/kg/injection, schedule: Q01DX009 (ip), vehicle: other) 90 % of control; (dose: 12.5 mg/kg/injection, schedule: Q01DX009 (ip), vehicle: other) 95 % of control; (dose: 25.0 mg/kg/injection, schedule: Q01DX009 (ip), vehicle: other) 94 % of control and 96 % of control; (dose: 50.0 mg/kg/injection, schedule: Q01DX009 (ip), vehicle: other) 91 % of control; (dose: 100.0 mg/kg/injection, schedule: Q01DX009 (ip), vehicle: other) 93 % of control and 86 % of control.

As for `CN(C)CCCNCC(=O)N1CCN(C(=O)CNCCCN(C)C)CC1`, the T/C was 106 % of control (dose: 50.0 mg/kg/injection, schedule: Q01DX001 (ip), vehicle: carboxymethylcellulose (CMC)) and 106 % of control (dose: 100.0 mg/kg/injection, schedule: Q01DX001 (ip), vehicle: carboxymethylcellulose (CMC)).

Take `CCN(Cc1ccccc1)C(=O)Nc1ccccc1`: the T/C reads like this: under setting [4], 101 % of control; under setting [5], 93 % of control; under setting [6], 97 % of control.

For `CN(C)CC(Oc1ccccc1)c1ccccc1` (configuration not stated), the T/C under setting [7] was 98 % of control.

Regarding `CC(C)(C)C1CCC(=N[N+](C)(C)C)CC1` (configuration not stated), the T/C under setting [1] is 104 % of control.

In the case of `CCCCCCCCCCCCCCCCC/C=N/Nc1nnc(N/N=C/CCCCCCCCCCCCCCCCC)c2ccccc12`, the T/C (dose: 50.0 mg/kg/injection, schedule: Q01DX001 (ip), vehicle: saline) was 95 % of control; the T/C under setting [1] is 103 % of control; the T/C under setting [2] was 101 % of control; the T/C under setting [3] was 101 % of control.

With `N#CCCN(C(=O)Nc1cccc(Cl)c1)C1CCCCC1`, the T/C is 103 % of control under setting [8], 90 % of control under setting [9] and 97 % of control under setting [10].

Turning to `CC1(C)CCCC2(C)C3Cc4occc4C(C(=O)O)C3C(O)C(O)C12` (configuration not stated), the T/C was 106 % of control under setting [11], 109 % of control under setting [12] and 98 % of control under setting [13].

On to `O=C1CCCC2C(=O)CCCC12` (configuration not stated), for which the T/C by setting is: (dose: 100.0 mg/kg/injection, schedule: Q## X003 (ip), vehicle: saline) 102 % of control; (dose: 200.0 mg/kg/injection, schedule: Q## X003 (ip), vehicle: saline) 98 % of control; (dose: 400.0 mg/kg/injection, schedule: Q## X003 (ip), vehicle: saline) 101 % of control.

Turning to `C#CCNCc1ccccc1`, the T/C is 101 % of control and 92 % of control under setting [14]; 100 % of control under setting [1]; 101 % of control and 106 % of control under setting [15]; 94 % of control and 96 % of control and 108 % of control under setting [7]; 98 % of control (dose: 100.0 mg/kg/injection, schedule: Q04DX003 (ip), vehicle: saline); 96 % of control under setting [2]. Also, the T/C is 101 % of control (2×) and 112 % of control (dose: 200.0 mg/kg/injection, schedule: Q04DX002 (ip), vehicle: saline); 101 % of control (dose: 200.0 mg/kg/injection, schedule: Q04DX003 (ip), vehicle: saline); 98 % of control under setting [3].

With `CC(C)(CO)N=Cc1ccccc1O.CC(C)(CO)N=Cc1ccccc1O.[Ni]`, the T/C by setting is: (dose: 75.0 mg/kg/injection, schedule: Q01DX001 (ip), vehicle: other) 110 % of control; (dose: 150.0 mg/kg/injection, schedule: Q01DX001 (ip), vehicle: other) 117 % of control.

In the case of `B1CCN1`, the T/C by setting is: (dose: 9.5 mg/kg/injection, schedule: Q01DX001 (ip), vehicle: saline) 94 % of control; (dose: 19.0 mg/kg/injection, schedule: Q01DX001 (ip), vehicle: saline) 103 % of control.

On to `CCOC(=O)COc1c(C(C)(C)C)cc([N+](=O)[O-])c(C)c1[N+](=O)[O-]`, for which the T/C by setting is: under setting [4], 100 % of control; under setting [5], 91 % of control; under setting [6], 106 % of control.

`Nc1ccc(S(=O)O)cc1`: the T/C by setting is: under setting [15], 94 % of control; under setting [11], 105 % of control; under setting [16], 91 % of control; under setting [12], 95 % of control; (dose: 400.0 mg/kg/injection, schedule: Q01DX009 (ip), vehicle: saline with Tween-80) 94 % of control; under setting [13], 91 % of control.

As for `NC(N)=NC(N)=Nc1ccccc1CS`, the T/C (dose: 75.0 mg/kg/injection, schedule: Q01DX001 (ip), vehicle: saline) was 101 % of control and the T/C (dose: 150.0 mg/kg/injection, schedule: Q01DX001 (ip), vehicle: saline) is 102 % of control.

Turning to `N#CCOC(=O)c1ccc[nH]1`, the T/C reads like this: (dose: 10.0 mg/kg/injection, schedule: Q01DX001 (ip), vehicle: acetone) 101 % of control; (dose: 20.0 mg/kg/injection, schedule: Q01DX001 (ip), vehicle: acetone) 100 % of control; (dose: 40.0 mg/kg/injection, schedule: Q01DX001 (ip), vehicle: acetone) 97 % of control.

Turning to `COc1ccc(/C=N\NC(=O)CNC(=O)Nc2cccc(Cl)c2)cc1O`, the T/C under setting [14] was 95 % of control, the T/C under setting [15] was 92 % of control and the T/C under setting [16] was 92 % of control.

Take `CCCCNC(C)(C)C(SSC(c1cccs1)C(C)(C)NCCCC)c1cccs1` (configuration not stated): the T/C by setting is: (dose: 25.0 mg/kg/injection, schedule: Q01DX009 (ip), vehicle: saline sonified) 100 % of control; (dose: 50.0 mg/kg/injection, schedule: Q01DX009 (ip), vehicle: saline sonified) 100 % of control; (dose: 100.0 mg/kg/injection, schedule: Q01DX009 (ip), vehicle: saline sonified) 96 % of control; (dose: 100.0 mg/kg/injection, schedule: Q04DX003 (ip), vehicle: saline sonified) 90 % of control.

Regarding `Cc1cccc(C)c1NC(=O)Nc1cccc(O)c1`, the T/C is, setting by setting: under setting [8], 101 % of control; under setting [9], 108 % of control; under setting [10], 103 % of control.

`COC(C)(C)C(C)O` (configuration not stated): the T/C (dose: 50.0 mg/kg/injection, schedule: Q01DX009 (ip), vehicle: saline) is 100 % of control; the T/C (dose: 100.0 mg/kg/injection, schedule: Q01DX009 (ip), vehicle: saline) was 96 % of control; the T/C (dose: 200.0 mg/kg/injection, schedule: Q01DX009 (ip), vehicle: saline) is 100 % of control.

The values above are taken from PubChem BioAssay AID248 (DTP/NCI, 2004).
